The results in this text go back to patent US8309546B2, “Morpholinopurine derivatives” (Daiichi Sankyo Company, Limited, priority 2008, dated 2012).

Molecules are shown by their SMILES. pIC50: −log10 of the molar value.

For orientation: pIC50 means −log10 of the IC50, conventionally taken in molar units.

For experiment [1], the target named is T1, human mTOR (His-tagged mTOR (1362C)) (Homo sapiens, UniProt P42345).
T1 construct: the 1362 to 2549 amino acid portion on the C terminus side of human mTOR; His tag (N); made in house
In words: mTOR kinase activity inhibition assay. Type of experiment: biochemical. The settings on record: HTRF, read-out: IC50 against mTOR. Put shortly:
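Crude His-tagged mTOR (aa 1362–2549) from stable HEK293 cells, with 8 μg/ml biotinylated peptide in 50 mM HEPES pH 7.5, 20 mM MnCl2; compound diluted in 20 μM ATP solution, reaction 3 h at room temperature. Phospho-peptide detected by HTRF (anti-phospho-S6K Thr389 cryptate/streptavidin-XL665, overnight at 4°C), 665/620 nm ratio. IC50 derived from curve fit of % inhibition.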
(TR-FRET usually uses a lanthanide donor and a delayed reading to cut background.)

The subject of experiment [2] is human colon cancer cell strain HT29. The experiment in a line: Cell growth inhibition test (MTT), HT29. The settings on record: HT-29, 72 h, HT29, 3 days culture, read-out: concentration exhibiting anti-cell effect (GI50). Type of experiment: cell-based. Put shortly:
(§1)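 Cells were seeded per well (AN3CA 5000, IGROV1 1000, HT29 5000), dosed next day and cultured 3 days at 37° C in 5% CO2. Viable cells were read by MTT (4 h, DMSO-solubilized formazan, A540). GI50 was interpolated between the two concentrations bracketing 50% growth rate (T/C %, corrected for day-0 absorbance).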

In experiment [3] the test system is human endometrial cancer cell strain AN3CA. In words: Cell growth inhibition test (MTT), AN3CA. The experiment is classed as cell-based. The conditions noted are these: AN3-CA, 72 h, 3 days culture, read-out: concentration exhibiting anti-cell effect (GI50). Put shortly:
as §1

In experiment [4] the test system is human ovary cancer cell strain IGROV1. The experiment in a line: Cell growth inhibition test (MTT), IGROV1. The experiment is classed as cell-based. The conditions noted are these: IGROV-1, 72 h, IGROV1, 3 days culture, read-out: concentration exhibiting anti-cell effect (GI50). In outline:
as §1

T1 sequence (P42345 1362-2549): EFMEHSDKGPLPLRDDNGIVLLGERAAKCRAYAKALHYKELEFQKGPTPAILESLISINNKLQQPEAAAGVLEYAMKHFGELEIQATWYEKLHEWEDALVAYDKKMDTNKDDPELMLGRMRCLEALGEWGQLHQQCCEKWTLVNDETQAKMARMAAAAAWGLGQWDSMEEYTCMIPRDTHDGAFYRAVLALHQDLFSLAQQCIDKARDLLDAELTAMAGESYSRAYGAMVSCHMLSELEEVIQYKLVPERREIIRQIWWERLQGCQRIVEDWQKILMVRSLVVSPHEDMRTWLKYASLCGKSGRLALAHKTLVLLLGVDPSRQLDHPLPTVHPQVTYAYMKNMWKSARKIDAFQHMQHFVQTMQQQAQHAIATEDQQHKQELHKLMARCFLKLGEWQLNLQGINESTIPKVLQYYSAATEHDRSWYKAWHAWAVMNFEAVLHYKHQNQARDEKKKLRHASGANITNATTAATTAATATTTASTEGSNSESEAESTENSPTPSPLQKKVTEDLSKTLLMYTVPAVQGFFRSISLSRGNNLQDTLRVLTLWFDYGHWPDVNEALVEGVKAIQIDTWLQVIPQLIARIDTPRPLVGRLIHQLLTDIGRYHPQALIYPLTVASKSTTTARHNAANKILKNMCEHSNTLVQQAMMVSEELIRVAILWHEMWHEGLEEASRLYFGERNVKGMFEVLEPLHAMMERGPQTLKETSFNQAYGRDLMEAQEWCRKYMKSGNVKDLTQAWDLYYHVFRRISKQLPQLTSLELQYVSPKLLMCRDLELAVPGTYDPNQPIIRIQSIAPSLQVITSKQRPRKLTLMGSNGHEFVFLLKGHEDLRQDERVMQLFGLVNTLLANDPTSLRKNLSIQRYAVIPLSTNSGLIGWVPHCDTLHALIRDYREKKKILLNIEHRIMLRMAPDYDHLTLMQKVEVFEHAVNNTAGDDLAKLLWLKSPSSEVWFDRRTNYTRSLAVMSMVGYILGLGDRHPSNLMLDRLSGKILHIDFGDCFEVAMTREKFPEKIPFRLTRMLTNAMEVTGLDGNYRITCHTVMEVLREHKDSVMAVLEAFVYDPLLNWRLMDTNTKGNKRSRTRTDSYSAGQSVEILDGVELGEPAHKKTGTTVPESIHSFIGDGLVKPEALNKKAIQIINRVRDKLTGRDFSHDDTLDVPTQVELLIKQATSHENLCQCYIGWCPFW

For the compound `C[C@H](O)C(=O)N1CCN(c2nc3c(N4CCOCC4)nc(-c4cnc(N)nc4)nc3n2CC(F)(F)F)CC1` [Example 68, (2S)-1-{4-[2-(2-Aminopyrimidin-5-yl)-6-morpholin-4-yl-9-(2,2,2-trifluoroethyl)-9H-purin-8-yl]piperazin-1-yl}-1-oxopropan-2-ol], the pIC50 in experiment [1] is over 8.00. For the same compound, the GI50 in experiment [2], in experiment [3] and in experiment [4] was at most 5 µM throughout.

Consider `C[C@H](O)CC(=O)N1CCN(c2nc3c(N4CCOCC4)nc(-c4cnc(N)nc4)nc3n2CC(F)(F)F)CC1` [Example 69, (2S)-4-{4-[2-(2-Aminopyrimidin-5-yl)-6-morpholin-4-yl-9-(2,2,2-trifluoroethyl)-9H-purin-8-yl]piperazin-1-yl}-4-oxobutan-2-ol], for which the pIC50 in experiment [1] was over 8.00. The GI50 in experiment [2], in experiment [3] and in experiment [4] was at most 5 µM throughout.

On to `C[C@@H](O)CC(=O)N1CCN(c2nc3c(N4CCOCC4)nc(-c4cnc(N)nc4)nc3n2CC(F)(F)F)CC1` [Example 70, (2R)-4-{4-[2-(2-Aminopyrimidin-5-yl)-6-morpholin-4-yl-9-(2,2,2-trifluoroethyl)-9H-purin-8-yl]piperazin-1-yl}-4-oxobutan-2-ol], for which, in experiment [1], the pIC50 is over 8.00. Moreover, the GI50 in experiment [2], in experiment [3] and in experiment [4] was at most 5 µM each time.

As for `Nc1ncc(-c2nc(N3CCOCC3)c3nc(N4CCN(C=O)CC4)n(CC(F)(F)F)c3n2)cn1` [Example 71, 4-[2-(2-Aminopyrimidin-5-yl)-6-morpholin-4-yl-9-(2,2,2-trifluoroethyl)-9H-purin-8-yl]piperazine-1-carboaldehyde], the pIC50 in experiment [1] was over 8.00. Also, the GI50 in experiment [2], in experiment [3] and in experiment [4] was at most 5 µM each time.

For the compound `CC[C@H]1CN(c2nc3c(N4CCOCC4)nc(-c4cnc(N)nc4)nc3n2CC(F)(F)F)CCN1C(C)=O` [Example 75, 5-{8-[(3S)-4-Acetyl-3-ethylpiperazin-1-yl]-6-morpholin-4-yl-9-(2,2,2-trifluoroethyl)-9H-purin-2-yl}pyrimidin-2-amine], the pIC50 in experiment [1] is over 8.00. For the same compound, the GI50 in experiment [2], in experiment [3] and in experiment [4] was at most 5 µM throughout.

As for `CC[C@H]1CN(c2nc3c(N4CCOCC4)nc(-c4cnc(N)nc4)nc3n2CC(F)(F)F)CCN1S(C)(=O)=O` [Example 76, 5-{8-[(3S)-3-Ethyl-4-(methylsulfonyl)piperazin-1-yl]-6-morpholin-4-yl-9-(2,2,2-trifluoroethyl)-9H-purin-2-yl}pyrimidin-2-amine], in experiment [1], the pIC50 was over 8.00. Moreover, the GI50 in experiment [2], in experiment [3] and in experiment [4] was at most 5 µM each time.

`CC[C@H]1CN(c2nc3c(N4CCOCC4)nc(-c4cnc(N)nc4)nc3n2CC(F)(F)F)CCN1C(=O)[C@H](C)O` [Example 77, (2S)-1-{(2S)-4-[2-(2-Aminopyrimidin-5-yl)-6-morpholin-4-yl-9-(2,2,2-trifluoroethyl)-9H-purin-8-yl]-2-ethylpiperazin-1-yl}-1-oxopropan-2-ol]: the pIC50 in experiment [1] is 7.52 to 8.00. For the same compound, the GI50 in experiment [2], in experiment [3] and in experiment [4] was at most 5 µM throughout.

In the case of `CC[C@@H]1CN(c2nc3c(N4CCOCC4)nc(-c4cnc(N)nc4)nc3n2CC(F)(F)F)CCN1C(=O)[C@H](C)O` [Example 79], the pIC50 in experiment [1] was over 8.00. For the same compound, the GI50 in experiment [2], in experiment [3] and in experiment [4] was at most 5 µM each time.

As to `CC(C)Cn1c(N2CCN(C(=O)C[C@@H](C)O)CC2)nc2c(N3CCOCC3)nc(-c3cnc(N)nc3)nc21` [Example 81, (2R)-4-{4-[2-(2-Aminopyrimidin-5-yl)-9-isobutyl-6-morpholin-4-yl-9H-purin-8-yl]piperazin-1-yl}-4-oxobutan-2-ol], the pIC50 in experiment [1] is 7.52 to 8.00. Moreover, the GI50 in experiment [2], in experiment [3] and in experiment [4] was at most 5 µM each time.

As to `CC(C)Cn1c(N2CCN(C(=O)C[C@H](C)O)CC2)nc2c(N3CCOCC3)nc(-c3cnc(N)nc3)nc21` [Example 82, (2S)-4-{4-[2-(2-Aminopyrimidin-5-yl)-9-isobutyl-6-morpholin-4-yl-9H-purin-8-yl]piperazin-1-yl}-4-oxobutan-2-ol], the pIC50 in experiment [1] was 7.52 to 8.00. The GI50 in experiment [2], in experiment [3] and in experiment [4] was at most 5 µM each time.

With `CC(C)Cn1c(N2CCN(C(=O)C[C@@H](C)O)[C@@H](C)C2)nc2c(N3CCOCC3)nc(-c3cnc(N)nc3)nc21` [Example 83, (2R)-4-{(2S)-4-[2-(2-Aminopyrimidin-5-yl)-9-isobutyl-6-morpholin-4-yl-9H-purin-8-yl]-2-methylpiperazin-1-yl}-4-oxobutan-2-ol], in experiment [1], the pIC50 is over 8.00. Moreover, the GI50 in experiment [2], in experiment [3] and in experiment [4] was at most 5 µM each time.

Turning to `CC(C)Cn1c(N2CCN(C(=O)C[C@@H](C)O)[C@H](C)C2)nc2c(N3CCOCC3)nc(-c3cnc(N)nc3)nc21` [Example 84, (2R)-4-{(2R)-4-[2-(2-Aminopyrimidin-5-yl)-9-isobutyl-6-morpholin-4-yl-9H-purin-8-yl]-2-methylpiperazin-1-yl}-4-oxobutan-2-ol], the pIC50 in experiment [1] was 7.52 to 8.00. The GI50 in experiment [2], in experiment [3] and in experiment [4] was at most 5 µM each time.

For `CC(C)Cn1c(N2CCN(C(=O)C[C@H](C)O)[C@@H](C)C2)nc2c(N3CCOCC3)nc(-c3cnc(N)nc3)nc21` [Example 85, (2S)-4-{(2S)-4-[2-(2-Aminopyrimidin-5-yl)-9-isobutyl-6-morpholin-4-yl-9H-purin-8-yl]-2-methylpiperazin-1-yl}-4-oxobutan-2-ol], in experiment [1], the pIC50 is over 8.00. The GI50 in experiment [2], in experiment [3] and in experiment [4] was at most 5 µM in each case.

Take `CC(C)Cn1c(N2CCN(C(=O)C[C@H](C)O)[C@H](C)C2)nc2c(N3CCOCC3)nc(-c3cnc(N)nc3)nc21` [Example 86, (2S)-4-{(2R)-4-[2-(2-Aminopyrimidin-5-yl)-9-isobutyl-6-morpholin-4-yl-9H-purin-8-yl]-2-methylpiperazin-1-yl}-4-oxobutan-2-ol]: the pIC50 in experiment [1] was 7.52 to 8.00. For the same compound, the GI50 in experiment [2], in experiment [3] and in experiment [4] was at most 5 µM throughout.

Take `CNc1ncc(-c2nc(N3CCOCC3)c3nc(N4CCN(CC(=O)N(C)C)[C@H](C)C4)n(CC(F)(F)F)c3n2)cn1` [Example 87, N,N-Dimethyl-2-[(2R)-2-methyl-4-{2-[2-(methylamino)pyrimidin-5-yl]-6-morpholin-4-yl-9-(2,2,2-trifluoroethyl)-9H-purin-8-yl}piperazin-1-yl]acetamide]: the pIC50 in experiment [1] was 7.52 to 8.00. The GI50 in experiment [2], in experiment [3] and in experiment [4] was at most 5 µM each time.

As to `C[C@H](O)C(=O)N1CCN(c2nc3c(N4CCOCC4)nc(-c4cnc(N)nc4)nc3n2CC2CC2)CC1` [Example 88, (2S)-1-{4-[2-(2-Aminopyrimidin-5-yl)-9-(cyclopropylmethyl)-6-morpholin-4-yl-9H-purin-8-yl]piperazin-1-yl}-1-oxopropan-2-ol], the negative-log IC50 (pIC50) in experiment [1] is 7.00 to 7.52. Moreover, the GI50 in experiment [2], in experiment [3] and in experiment [4] was at most 5 µM in each case.

For the compound `CC(C)Cn1c(N2CCN(C(=O)CO)CC2)nc2c(N3CCOCC3)nc(-c3cnc(N)nc3)nc21` [Example 89, 2-{4-[2-(2-Aminopyrimidin-5-yl)-9-isobutyl-6-morpholin-4-yl-9H-purin-8-yl]piperazin-1-yl}-2-oxoethanol], the pIC50 in experiment [1] is 7.52 to 8.00. Besides, the GI50 in experiment [2], in experiment [3] and in experiment [4] was at most 5 µM throughout.

For the compound `CC(C)Cn1c(N2CCN(C=O)CC2)nc2c(N3CCOCC3)nc(-c3cnc(N)nc3)nc21` [Example 90, 4-[2-(2-Aminopyrimidin-5-yl)-9-isobutyl-6-morpholin-4-yl-9H-purin-8-yl]piperazine-1-carboaldehyde], the negative logarithm of the IC50 (pIC50) in experiment [1] was 7.52 to 8.00. The GI50 in experiment [2], in experiment [3] and in experiment [4] was at most 5 µM in each case.

`C[C@H](O)C(=O)N1CCN(c2nc3c(N4CCOCC4)nc(-c4cnc(N)nc4)nc3n2CC2CC2)C[C@@H]1C` [Example 92, (2S)-1-{(2S)-4-[2-(2-Aminopyrimidin-5-yl)-9-(cyclopropylmethyl)-6-morpholin-4-yl-9H-purin-8-yl]-2-methylpiperazin-1-yl}-1-oxopropan-2-ol]: the pIC50 in experiment [1] is 7.52 to 8.00. Moreover, the GI50 in experiment [2], in experiment [3] and in experiment [4] was at most 5 µM in each case.

Take `CC(C)Cn1c(N2CCN(C(=O)[C@@H](C)O)CC2)nc2c(N3CCOCC3)nc(-c3cnc(N)nc3)nc21` [Example 93]: the pIC50 in experiment [1] was 7.52 to 8.00. For the same compound, the GI50 in experiment [2], in experiment [3] and in experiment [4] was at most 5 µM each time.
